Data from patent US20060004086A1, “Method of reducing Abeta42 and treating diseases” (Mayo Foundation for Medical Education and Research, priority 2000, published 2006).
Entries after “also recorded” stand apart in the source; their conditions may differ. Where two headings read alike, the source gives them in different places.

Columns and labels:
Aβ42 secretion [1] = experiment: Primary in vitro screen, CHO-APP695NL,I,his cells, end-specific Aβ40 and Aβ42 ELISAs; type: cell-based, Chinese hamster; settings: for activity at 10 µM / activity at 100 µM: Cricetulus griseus, 6 h; for selective reduction of Aβ42 levels in the primary screen: 10 μM or 100 μM, classification on a 20% change
Procedure: Aβ40 and Aβ42 levels in culture supernatants were determined for each time points using ELISA.
In a primary screen, the effects of NSAIDs on Aβ42 secretion by a CHO cell line that expressed APP(CHO-APP695NL,I,his) were examined. Duplicate cell cultures were treated with (a) a vehicle, (b) 10 μM of NSAID, or (c) 100 μM of NSAID.
To determine Aβ40 and Aβ42 levels, six-hour culture supernatants taken from cells grown in a single well of a twenty-four-well plate were used in end-specific Aβ40 and Aβ42 ELISAs (Suzuki, et al. (1994) Sci 264:[…]). Aβ40 and Aβ42 levels of cultures treated with NSAID were compared with those of cultures treated with the vehicle alone. […] NSAIDs that caused either selective reduction of Aβ42 levels or reduction in both Aβ40 and Aβ42 levels are subjected to a secondary screen.

[2] = test system: brain Aβ42 levels in Tg2576 mice; experiment: Acute oral dosing of three-month-old Tg2576 mice, brain Aβ ELISA; type: in vivo, mouse
Procedure: NSAIDs were dissolved in an appropriate vehicle. Dimethyl sulfoxide (DMSO), ethanol, and ethyl acetate are some examples. The NSAID solution was mixed with Kool-Aid and administered orally using a medicine dropper. […] At two hours after the final doses were administered, animals were sacrificed, and SDS soluble Aβ40 and Aβ42 were analyzed using ELISA.
Three month old mice have high levels of soluble Aβ in the brain but no Aβ deposition (see Hsiao et al. (1996) Science 274:99-102). […] Brain levels of SDS-soluble Aβ40 and Aβ42 were measured using ELISA.
Compounds were administered orally.

[3] = plasma concentration of the drug; cited from earlier work
Aβ42 secretion [4] = experiment: Aβ40/Aβ42 ELISA of culture supernatants, CHO cells expressing APP751; type: cell-based, Chinese hamster; settings: CHO cells expressing APP751; concentrations up to 400 μM
Procedure: Cell cultures were maintained in standard cell culture media supplemented with 10% fetal bovine serum and 100 U/mL penicillin/streptomycin (Life Technologies Inc., Germany).
For analyses of Aβ secretion, APP processing, and notch cleavage, cells were cultured in serum-containing media and pretreated overnight with a specific NSAID. The next day, media were changed and cultures were treated with the same NSAID for another 24 hours.
Aβ was detected by sandwich enzyme-linked immunosorbent assay (ELISA) as described by Murphy et al. (2000) J Biol Chem 275:26277-84. Following NSAID treatment, culture supernatants were collected, and cell debris was removed by centrifugation. Complete protease inhibitor cocktail (Roche Molecular Biochemicals, IN, USA) was added to the media and Aβ40 and Aβ42 levels were quantified using end-specific Aβ ELISAs. All measurements were performed in duplicate.
The effect of sulindac sulfone on Aβ42 secretion was examined. Sulindac sulfone is an oxidation product of the pro-drug sulindac. […] Cell cultures were treated with increasing concentrations of sulindac sulfone. Aβ40 and Aβ42 levels in culture supernatants were analyzed using ELISA.
Aβ40 and Aβ42 levels in cell culture supernatants were analyzed using ELISA. Aβ42/Aβ40 ratios and total Aβ levels were normalized to values obtained from DMSO-treated cultures. […] NSAIDs were verified using NMR and mass spectrometry.

Aβ42 production = Aβ42 production in APP695-transfected H4 cells; type: cell-based, human
Procedure: In a tertiary screen, Aβ production, sAPP production, and toxicity in a human H4 neuroglioma cell line that expressed APP are examined for all FDA-approved NSAIDs and novel NSAIDs that selectively reduce Aβ42 levels. Three doses of each NSAID are tested. The first is a dose that is expected to cause maximum reduction of Aβ42 levels. The second dose is one that reduces Aβ42 levels by 50% of the maximum value, while the third dose is one that reduces Aβ42 levels by 10-20% of the maximum value.

[5] = 10 μM, six-hour culture supernatants, read-out: % Control % Aβ42
[6] = 10 μM, six-hour culture supernatants, read-out: % Control Aβ40
[7] = 10 μM, six-hour culture supernatants, read-out: % Control Aβ42
[8] = Tg2576 mice, three month-old, 50 mg/kg/day orally for three days, SDS-soluble, mean ± SD
[9] = Tg2576 mice, treatment for three days, 50 mg/kg/day
[10] = six-hour culture supernatants, read-out: % Control % Aβ42
[11] = six-hour culture supernatants, read-out: % Control Aβ40
[12] = six-hour culture supernatants, read-out: % Control Aβ42
[13] = concentration not given, six-hour culture supernatants

SMILES	activity at 10 µM (Aβ42 secretion [1]; [5])	activity at 10 µM (Aβ42 secretion [1]; [6])	activity at 10 µM (Aβ42 secretion [1]; [7])	activity at 100 µM (Aβ42 secretion [1]; [10])	activity at 100 µM (Aβ42 secretion [1]; [11])	activity at 100 µM (Aβ42 secretion [1]; [12])	further results
O=C(c1ccccc1)c1ccc2n1CCC2C(=O)O (stereo not drawn) [Ketorlolac]	142%	84%	131%	–	–	–	–
Cc1ccc(Cl)c(Nc2ccccc2C(=O)O)c1Cl [Meclofenamic acid, meclofenamic acid]	37%	39%	13%	–	–	–	selective reduction of Aβ42 levels in the primary screen (Aβ42 secretion [1]): selectively reduced Aβ42 levels; selective reduction of Aβ42, time course (Aβ42 secretion [1]; CHO-APP695NL,I,his cells treated for six, twelve, or twenty-four hours): detectable at six hours; Brain levels of Aβ40 [2, 8]: 2932 ± 289 fmol/gm; Brain levels of Aβ42 [2, 8]: 679 ± 343 fmol/gm; % Aβ42 in brain ([2]; Tg2576 mice, three month-old, 50 mg/kg/day orally for three days, mean ± SD): 18.6 ± 8.7 %; Aβ40 levels in the brain [2, 9]: no change; reduction in Aβ42 levels in the brain [2, 9]: approximately 30%
Cc1cccc(Nc2ccccc2C(=O)O)c1C [Mefenamic Acid, mefenamic acid]	–	–	–	72%	116%	78%	selective reduction of Aβ42 levels in the primary screen (Aβ42 secretion [1]): selectively reduced Aβ42 levels
Cc1cnc(NC(=O)C2=C(O)c3ccccc3S(=O)(=O)N2C)s1 [Meloxicam]	158%	64%	122%	–	–	–	Plasma [3]: 15 µM
O=C(O)c1cc([N+](=O)[O-])ccc1NCCCc1ccccc1 [NPPB, 5-nitro-2-(3-phenylpropylamino)benzoic acid]	66%	81%	48%	–	–	–	–
COc1ccc2cc(CCC(C)=O)ccc2c1 [Nabumetone]	–	–	–	70%	157%	103%	–
COc1ccc2cc([C@H](C)C(=O)O)ccc2c1 [Naproxen, naproxen]	–	–	–	104%	107%	112%	total Aβ levels (Aβ42 secretion [4]): did not affect total Aβ levels
CN1C(C(=O)Nc2ccccn2)=C(O)c2ccccc2S1(=O)=O [Piroxicam]	–	–	–	75%	142%	101%	–
C[C@@H](C(=O)O)c1ccc(-c2ccccc2)c(F)c1 [R-flurbiprofen, (2R)-2-(2-Fluoro-1,1′-biphenyl-4-yl)propanoic acid]	–	–	–	–	–	–	levels of Aβ40 production (Aβ42 production): not altered; Aβ42 levels lowered by (Aβ42 production; 10 μM): 20%; Aβ42 levels lowered by (Aβ42 production; 100 μM): 49%; brain Aβ42 levels ([2]; three-month old Tg2576 mice, 100 mg/kg/day orally for three days, compared with vehicle, 100 mg/kg/day): more effective at lowering brain Aβ42 in this acute dosing paradigm than S-flurbiprofen; also recorded: lower Aβ42 levels
Oc1ccc(C=Cc2cc(O)cc(O)c2)cc1 [Resveratrol]	130%	75%	107%	–	–	–	–
C[C@H](C(=O)O)c1ccc(-c2ccccc2)c(F)c1 [S-flurbiprofen]	–	–	–	–	–	–	levels of Aβ40 production (Aβ42 production): not altered; Aβ42 levels lowered by (Aβ42 production; 100 μM): 58%
COc1ccc(-n2nc(C(F)(F)F)cc2-c2ccc(Cl)cc2)cc1 [SC560]	–	–	–	–	–	–	activity at 10 µM (Aβ42 secretion [1]; read-out: % Control % Aβ42): 227%; activity at 10 µM (Aβ42 secretion [1]; read-out: % Control Aβ40): 47%; activity at 10 µM (Aβ42 secretion [1]; read-out: % Control Aβ42): 166%
CC1=C(CC(=O)O)c2cc(F)ccc2/C1=C\c1ccc(S(C)(=O)=O)cc1 [Sulindac Sulfone, sulindac sulfone]	–	–	–	–	–	–	% Control % Aβ42 (Aβ42 secretion [1]; [13]): 92%; % Control Aβ40 (Aβ42 secretion [1]; [13]): 109%; % Control Aβ42 (Aβ42 secretion [1]; [13]): 97%; Aβ42/Aβ40 ratios (Aβ42 secretion [4]): no changes in Aβ42/Aβ40 ratios were observed
CC(C(=O)O)c1ccc(C(=O)c2cccs2)cc1 (stereo not drawn) [Suprofen]	–	–	–	102%	126%	129%	–
CN1C(C(=O)Nc2ccccn2)=C(O)c2sccc2S1(=O)=O [Tenoxicam]	–	–	–	112%	80%	92%	–
Cc1c(Cl)cccc1Nc1ccccc1C(=O)O [Tolfenamic Acid, tolfenamic acid]	–	–	–	110%	84%	95%	selective reduction of Aβ42 levels in the primary screen (Aβ42 secretion [1]): did not
